Measurements published in US8828908B2, “Herbicidally active bicyclic 1,3-dione compounds” (Syngenta Limited, priority 2007, dated 2014).

Legend:
Assay type in all cases: in vivo
Avena fatua (AVEFA) [1] = assay: Example B post-emergence herbicidal greenhouse test; settings: 360 h, evaluated after 15 days, 100=total damage to plant, 0=no damage
Experimental: (§1) Seeds of a variety of test species were sown in standard soil in pots. After cultivation for one day (pre-emergence) or after 10 days cultivation (post-emergence) under controlled conditions in a glasshouse, the plants were sprayed with an aqueous spray solution derived from the formulation of the technical active ingredient in 0.6 ml acetone and 45 ml formulation solution containing 10.6% Emulsogen EL (Registry number 61791-12-6), 42.2% N-methylpyrrolidone, 42.2% dipropylene glycol monomethyl ether (Registry number 34590-94-8) and 0.2% X-77 (Registry number 11097-66-8). The test plants were then grown in a greenhouse under optimum conditions until, 15 days later for post-emergence and 20 days for pre-emergence, the test was evaluated (100=total damage to plant; 0=no damage to plant).
(§2) Alopecurus myosuroides (ALOMY), Avena fatua (AVEFA), Lolium perenne (LOLPE), Setaria faberi (SETFA), Digitaria sanguinalis (DIGSA), Echinochloa crus-galli (ECHCG)

[2] = tested on: Alopecurus myosuroides (ALOMY); assay: as above; settings: 360 h, evaluated after 15 days, 100=total damage to plant, 0=no damage
Experimental: as §1, §2

Setaria faberi (SETFA) [3] = assay: as above; settings: 360 h, evaluated after 15 days, 100=total damage to plant, 0=no damage
Experimental: as §1, §2

Lolium perenne (LOLPE) [4] = assay: as above; settings: 360 h, evaluated after 15 days, 100=total damage to plant, 0=no damage
Experimental: as §1, §2

[5] = tested on: Echinochloa crus-galli (ECHCG); assay: as above; settings: 360 h, evaluated after 15 days, 100=total damage to plant, 0=no damage
Experimental: as §1, §2

[6] = tested on: Digitaria sanguinalis (DIGSA); assay: as above; settings: 360 h, evaluated after 15 days, 100=total damage to plant, 0=no damage
Experimental: as §1, §2

Avena fatua (AVEFA) [7] = assay: Example B pre-emergence herbicidal greenhouse test; settings: 480 h, evaluated after 20 days, 100=total damage to plant, 0=no damage
Experimental: as §1, §2

[8] = tested on: Alopecurus myosuroides (ALOMY); assay: Example B pre-emergence herbicidal greenhouse test; settings: 480 h, evaluated after 20 days, 100=total damage to plant, 0=no damage
Experimental: as §1, §2

Setaria faberi (SETFA) [9] = assay: Example B pre-emergence herbicidal greenhouse test; settings: 480 h, evaluated after 20 days, 100=total damage to plant, 0=no damage
Experimental: as §1, §2

Lolium perenne (LOLPE) [10] = assay: Example B pre-emergence herbicidal greenhouse test; settings: 480 h, evaluated after 20 days, 100=total damage to plant, 0=no damage
Experimental: as §1, §2

[11] = tested on: Echinochloa crus-galli (ECHCG); assay: Example B pre-emergence herbicidal greenhouse test; settings: 480 h, evaluated after 20 days, 100=total damage to plant, 0=no damage
Experimental: as §1, §2

[12] = tested on: Digitaria sanguinalis (DIGSA); assay: Example B pre-emergence herbicidal greenhouse test; settings: 480 h, evaluated after 20 days, 100=total damage to plant, 0=no damage
Experimental: as §1, §2

Avena fatua (AVEFA) [13] = assay: Example A post-emergence herbicidal glasshouse test; settings: 312 h, evaluated after 13 days, 100=total damage to plant, 0=no damage
Experimental: (§3) Seeds of a variety of test species were sown in standard soil in pots. After cultivation for one day (pre-emergence) or after 8 days cultivation (post-emergence) under controlled conditions in a glasshouse (at 24/16° C., day/night; 14 hours light; 65% humidity), the plants were sprayed with an aqueous spray solution derived from the formulation of the technical active ingredient in acetone/water (50:50) solution containing 0.5% Tween 20 (polyoxyethelyene sorbitan monolaurate, CAS RN 9005-64-5). The test plants were then grown in a glasshouse under controlled conditions in a glasshouse (at 24/16° C., day/night; 14 hours light; 65% humidity) and watered twice daily. After 13 days for pre and post-emergence, the test was evaluated (100=total damage to plant; 0=no damage to plant).
(§4) Alopecurus myosuroides (ALOMY), Avena fatua (AVEFA), Setaria faberi (SETFA), Echinochloa crus-galli (ECHCG), Solanum nigrum (SOLNI) and Amaranthus retroflexus (AMARE)

[14] = tested on: Alopecurus myosuroides (ALOMY); assay: as above; settings: 312 h, evaluated after 13 days, 100=total damage to plant, 0=no damage
Experimental: as §3, §4

Setaria faberi (SETFA) [15] = assay: as above; settings: 312 h, evaluated after 13 days, 100=total damage to plant, 0=no damage
Experimental: as §3, §4

[16] = tested on: Echinochloa crus-galli (ECHCG); assay: as above; settings: 312 h, evaluated after 13 days, 100=total damage to plant, 0=no damage
Experimental: as §3, §4

[17] = tested on: Amaranthus retroflexus (AMARE); assay: as above; settings: 312 h, evaluated after 13 days, 100=total damage to plant, 0=no damage
Experimental: as §3, §4

Avena fatua (AVEFA) [18] = assay: Example A pre-emergence herbicidal glasshouse test; settings: 312 h, Rate 250 g/ha, evaluated after 13 days, 100=total damage to plant, 0=no damage to plant
Experimental: as §3, §4

[19] = tested on: Alopecurus myosuroides (ALOMY); assay: Example A pre-emergence herbicidal glasshouse test; settings: 312 h, Rate 250 g/ha, evaluated after 13 days, 100=total damage to plant, 0=no damage to plant
Experimental: as §3, §4

Setaria faberi (SETFA) [20] = assay: Example A pre-emergence herbicidal glasshouse test; settings: 312 h, Rate 250 g/ha, evaluated after 13 days, 100=total damage to plant, 0=no damage to plant
Experimental: as §3, §4

[21] = tested on: Echinochloa crus-galli (ECHCG); assay: Example A pre-emergence herbicidal glasshouse test; settings: 312 h, Rate 250 g/ha, evaluated after 13 days, 100=total damage to plant, 0=no damage to plant
Experimental: as §3, §4

[22] = tested on: Amaranthus retroflexus (AMARE); assay: Example A pre-emergence herbicidal glasshouse test; settings: 312 h, Rate 250 g/ha, evaluated after 13 days, 100=total damage to plant, 0=no damage to plant
Experimental: as §3, §4

SMILES | pest or weed control at 125 g/ha (Avena fatua (AVEFA) [1]) [%] | pest or weed control at 125 g/ha [2] [%] | pest or weed control at 125 g/ha (Setaria faberi (SETFA) [3]) [%] | pest or weed control at 125 g/ha (Lolium perenne (LOLPE) [4]) [%] | pest or weed control at 125 g/ha [5] [%] | pest or weed control at 125 g/ha [6] [%] | pest or weed control at 250 g/ha (Avena fatua (AVEFA) [7]) [%] | pest or weed control at 250 g/ha [8] [%] | pest or weed control at 250 g/ha (Setaria faberi (SETFA) [9]) [%] | pest or weed control at 250 g/ha (Lolium perenne (LOLPE) [10]) [%] | pest or weed control at 250 g/ha [11] [%] | pest or weed control at 250 g/ha [12] [%] | pest or weed control at 250 g/ha (Avena fatua (AVEFA) [13]) [%] | pest or weed control at 250 g/ha [14] [%] | pest or weed control at 250 g/ha (Setaria faberi (SETFA) [15]) [%] | pest or weed control at 250 g/ha [16] [%] | pest or weed control at 250 g/ha [17] [%] | pest or weed control at 250 g/ha (Avena fatua (AVEFA) [18]) [%] | pest or weed control at 250 g/ha [19] [%] | pest or weed control at 250 g/ha (Setaria faberi (SETFA) [20]) [%] | further results
CCc1ccc(-c2ccc(Cl)cc2Cl)cc1C1=C(OC(=O)OC)[C@H]2CC[C@H](C2)C1=O (single isomer, unassigned) [Compound P4, carbonic acid 3-(2′,4′-dichloro-4-ethylbiphen-3-yl)-4-oxo-bicyclo[3.2.1]oct-2-en-2-yl ester methyl ester] | 80 | 100 | 100 | 90 | 100 | 100 | 70 | 90 | 100 | 90 | 100 | 100 | 90 | 100 | 100 | 100 | 0 | 50 | 80 | 100 | pest or weed control at 250 g/ha [21]: 90%; pest or weed control at 250 g/ha [22]: 40%
CCc1ccc(-c2ccc(Cl)cc2Cl)cc1C1=C(OC(C)=O)[C@H]2CC[C@H](C2)C1=O (single isomer, unassigned) [Compound P7] | 80 | 60 | 100 | 70 | 100 | 90 | 30 | 70 | 80 | 70 | 50 | 80 | 100 | 90 | 100 | 100 | 0 | 90 | 40 | 100 | pest or weed control at 250 g/ha [21]: 100%; pest or weed control at 250 g/ha [22]: 0%
CCc1ccc(-c2ccc(Cl)cc2C)cc1C1=C(O)[C@H]2CC[C@H](C2)C1=O (single isomer, unassigned) [Compound T33] | 70 | 60 | 100 | 20 | 100 | 60 | 20 | 60 | 70 | 70 | 70 | 70 | 60 | 60 | 100 | 100 | 0 | 20 | 60 | 90 | pest or weed control at 250 g/ha [21]: 90%; pest or weed control at 250 g/ha [22]: 0%
CCc1ccc(-c2ccc(Cl)c(C#N)c2)cc1C1=C(O)[C@H]2CC[C@H](C2)C1=O (single isomer, unassigned) [Compound T34] | 10 | 0 | 40 | 0 | 80 | 40 | 40 | 40 | 90 | 40 | 90 | 90 | 70 | 70 | 90 | 100 | 0 | 0 | 60 | 100 | pest or weed control at 250 g/ha [21]: 70%; pest or weed control at 250 g/ha [22]: 0%
